Source: patent US10583128B2, “Treatment of diseases related to alpha subunits of sodium channels, voltage-gated (SCNxA) with small molecules” (CuRNA, Inc., priority 2011, dated 2020)
Structures can show the parent of a compound that is named as a salt.

What was measured:
SCN1A mRNA [1] = test: Upregulation of SCN1A mRNA in primary human skin fibroblasts carrying a Dravet-associated mutation (real time PCR); assay type: cell-based; details: compound 1 uM, 24-48 h, 18S-normalized vs vehicle (DMSO), average upregulation; for fold induction at 1 µM: Homo sapiens, Skin fibroblast, read-out: fold increase in SCN1A mRNA levels, SCN1A fibroblasts, Avg
Protocol: (§1) Transfer of a small molecule into a host cell or organism and determination of its effect upon RNA or protein up-regulation or down regulation can be assessed by several methods well known in the art. For example, SCN1A fibroblasts and/or keratinocytes or other cell types as desired are selected and grown for the specific assays herein. One day before the experiment cells are plated at the density of approximately 4×10^4/well into 24 well plates in Growth Media and incubated at 37° C. and 5% CO2 overnight. Next day, the media in the 24 well plates is changed to fresh Growth Media (1 ml/well) and the cells are dosed with small compounds. Compound stocks are prepared in DMSO at a concentration of 1 mM. At the time of the experiment 1 mM stock solutions are diluted to the concentration of 1 uM in Growth Media. One in 1000 dilution of DMSO is used for the control wells. After 24-48 h incubation at 37° C. and 5% CO2 the media is removed and RNA is extracted from the cells using SV Total RNA Isolation System from Promega (cat # Z3105) following the manufacturers' instructions. Six hundred nanograms of purified total RNA is added to the reverse transcription reaction performed using SuperScript VILO cDNA Synthesis Kit from Invitrogen (cat #11754-250) as described in the manufacturer's protocol. The cDNA from this reverse transcription reaction is used to monitor gene expression by real time PCR using ABI Taqman Gene Expression Mix (cat #4369510) and primers/probes designed by ABI (assays Hs00374696_ml, Hs00897350_ml or Hs00897341_ml for human SCN1A). The following PCR cycle is used: 50° C. for 2 min, 95° C. for 10 min, 40 cycles of (95° C. for 15 seconds, 60° C. for 1 min) using StepOne Plus Real Time PCR system (Applied Biosystems). The assay for 18S is manufactured by ABI (cat #4319413E). Fold change in gene expression after treatment with compounds is calculated based on the difference in 18S-normalized dCt values between compound- and vehicle-treated samples.
In Example 1 primary human skin fibroblasts carrying Dravet-associated SCN1A mutation were treated with small compounds at a final concentration of 1 uM.
Primary human skin fibroblasts carrying Dravet-associated SCN1A mutation introduced into culture by Dr. N. Kenyon (University of Miami) were grown in Growth Media consisting of a-MEM (Gibco, cat: 12561-056)+10% FBS (Mediatech, cat: 35-015 CV)+1% Antimycotic-Antibiotic (Gibco, cat: 15240-062) at 37° C. and 5% CO2. One day before the experiment cells were plated at the density of approximately 4×10^4/well into 24 well plates in Growth Media and incubated at 37° C. and 5% CO2 overnight. Next day, the media in the 24 well plates was changed to fresh Growth Media (I ml/well) and the cells were dosed with small compounds. All compounds were available from commercial sources. Compound stocks were prepared in DMSO at a concentration of 1 mM. At the time of the experiment 1 mM stock solutions were diluted to the concentration of 1 uM in Growth Media. One in 1000 dilution of DMSO was used for the control wells. After 24-48 h incubation at 37° C. and 5% CO2 the media was removed and RNA was extracted from the cells using SV Total RNA Isolation System from Promega (cat # Z3105) following the manufacturers' instructions. Six hundred nanograms of purified total RNA was added to the reverse transcription reaction performed using SuperScript VILO cDNA Synthesis Kit from Invitrogen (cat #11754-250) as described in the manufacturer's protocol. The cDNA from this reverse transcription reaction was used to monitor gene expression by real time PCR using ABI Taqman Gene Expression Mix (cat #4369510) and primers/probes designed by ABI (assays Hs00374696_ml, Hs00897350_ml or Hs00897341_ml for human SCN1A). Results obtained using all three assays were very similar (data not shown). […]

SCN1A mRNA [2] = test: Upregulation of SCN1A mRNA in adult primary human keratinocytes (real time PCR); assay type: cell-based; details: compound 1 uM, 24-48 h, 18S-normalized vs vehicle (DMSO), average upregulation; for fold induction at 1 µM: Homo sapiens, Keratinocyte, read-out: fold increase in SCN1A mRNA levels, Keratinocytes, Avg
Protocol: as §1
In Example 2 primary human keratinocytes were treated with small compounds at a final concentration of 1 uM.
Adult primary human keratinocytes from PromoCell (Heidelberg, Germany, cat # C-12003) or LifeLine Cell Technology (Frederick, Md., cat # FC-0025) were grown in Growth Media supplied by the manufacturers at 37° C. and 5% CO2. One day before the experiment cells were plated at the density of approximately 4×10^4/well into 24 well plates in Growth Media and incubated at 37° C. and 5% CO2 overnight. Next day, the media in the 24 well plates was changed to fresh Growth Media (1 ml/well) and the cells were dosed with small compounds. All compounds were available from commercial sources.
Compound stocks were prepared in DMSO at a concentration of 1 mM. At the time of the experiment 1 mM stock solutions were diluted to the concentration of 1 uM in Growth Media. One in 1000 dilution of DMSO was used for the control wells. After 24-48 h incubation at 37° C. and 5% CO2 the media was removed and RNA was extracted from the cells using SV Total RNA Isolation System from Promega (cat # Z3105) following the manufacturers' instructions. Six hundred nanograms of purified total RNA was added to the reverse transcription reaction performed using SuperScript VILO cDNA Synthesis Kit from Invitrogen (cat #11754-250) as described in the manufacturer's protocol. The cDNA from this reverse transcription reaction was used to monitor gene expression by real time PCR using ABI Taqman Gene Expression Mix (cat #4369510) and primers/probes designed by ABI (assays Hs00374696_ml, Hs00897350_ml or Hs00897341_ml for human SCN1A). Results obtained using all three assays were very similar (data not shown). The following PCR cycle was used: 50° C. for 2 min, 95° C. for 10 min, 40 cycles of (95° C. for 15 seconds, 60° C. for 1 min) using StepOne Plus Real Time PCR system (Applied Biosystems). The assay for 18S was manufactured by ABI (cat #4319413E). […]

Row | Compound | fold induction at 1 µM (SCN1A mRNA [1]) | fold induction at 1 µM (SCN1A mRNA [2]) | fold increase in SCN1A mRNA levels, Keratinocytes, Avg (SCN1A mRNA [2]) | fold increase in SCN1A mRNA levels, SCN1A fibroblasts, Avg (SCN1A mRNA [1])
1 | Cc1cccc(Nc2ccncc2S(=O)(=O)NC(=O)NC(C)C)c1 [Torsemide] | 3.7 | – | – | –
2 | COc1ccc2[nH]c([S+]([O-])Cc3ncc(C)c(OC)c3C)nc2c1 (stereo not shown) [Omeprazole, 6-methoxy-2-((4-methoxy-3,5-dimethylpyridin-2-yl)methylsulfinyl)-1H-benzo[d]imidazole Mg] | 2.22 | 2.46 | – | –
3 | CCOC(=O)C1=C(C)NC(C)=C(C(=O)OC)C1c1cccc([N+](=O)[O-])c1 (racemic) [Nitrendipine, (RS)-ethyl methyl 2,6-dimethyl-4-(3-nitrophenyl)-1,4-dihydropyridine-3,5-dicarboxylate] | 2.13 | – | – | –
4 | CC(N=C(NC#N)Nc1ccncc1)C(C)(C)C (stereo not shown) [Pinacidil, N-cyano-N′pyridin-4-yl-N″-(1,2,2-trimethylpropyl)guanidine] | 3.48 | – | – | –
5 | CN[C@H]1CC[C@@H](c2ccc(Cl)c(Cl)c2)c2ccccc21 [Sertraline, (1S,4S)-4-(3,4-dichlorophenyl)-N-methyl-1,2,3,4-tetrahydronaphthalen-1-amine] | 1.79 | 5.18 | – | –
6 | CC(C)c1ccc2oc3nc(N)c(C(=O)O)cc3c(=O)c2c1 [Amlexanox, 2-amino-7-isopropyl-5-oxo-5H-chromeno[2,3-b]pyridine-3-carboxylic acid] | 2.01 | 5.41 | – | –
7 | CCOc1cc(N)c(Cl)cc1C(=O)NCC1CN(Cc2ccc(F)cc2)CCO1 (stereo not shown) [Mosapride] | 1.9 | 1.47 | – | –
8 | CC(=O)N1CCN(c2ccc(OCC3COC(Cn4ccnc4)(c4ccc(Cl)cc4Cl)O3)cc2)CC1 [Ketoconazole, 1-[4-(4-{[(2R,4S)-2-(2,4-Dichlorophenyl)-2-(1H-imidazol-1-ylmethyl)-1,3-dioxolan-4-yl]methoxy}phenyl)piperazin-1-ylethan-1-one] | 2.95 | 2.73 | – | –
9 | CS(=O)(=O)Nc1ccc(Cc2noc(-c3ccc4[nH]cc(CCN)c4c3)n2)cc1 [L-694,247, Methanesulfonamide,N-[4-[[5-[3-(2-aminoethyl)-1H-indol-5-yl]-1,2,4-oxadiazol-3-yl]methyl]phenyl]] | – | – | 1.68 fold | 2.20 fold
10 | CN1C(=O)CN=C(c2ccccc2)c2cc([N+](=O)[O-])ccc21 [Nimetazepam, 2-methyl-9-nitro-6-phenyl-2,5-diazabicyclo[5.4.0]undeca-5,8,10,12-tetraen-3-one] | 2.03 | 2.47 | – | –
11 | CCN(CC)C(=O)C1(c2ccccc2)CC1CN [Milnacipran, 1R(S),2S(R)[-2-(aminomethyl)-N,N-diethyl-1-phenylcyclopropanecarboxamide hydrochloride] | 4.37 | 2.72 | – | –
12 | O=c1c2ccccc2[se]n1-c1ccccc1 [Ebselen, 2-Phenyl-1,2-benzoselenazol-3-one] | 2.81 | 2.67 | – | –
13 | CCc1nn(CCCN2CCN(c3cccc(Cl)c3)CC2)c(=O)n1CCOc1ccccc1 [Nefazadone, 2-[3-[4-(3-chlorophenyl)-1-piperazinyl]propyl]-5-ethyl-2,4-dihydro-4-(2-phenoxyethyl)-3H-1,2,4-triazol-3-one monohydrochloride] | 2.39 | 4.53 | – | –
14 | CN1CC(=O)N2[C@H](c3ccc4c(c3)OCO4)c3[nH]c4ccccc4c3C[C@@H]2C1=O [Tadalafil, (6R-trans)-6-(1,3-benzodioxol-S-yl)-2,3,6,7,12,12a-hexahydro-2-methyl-pyrazino[1′,2′:1,6]pyrido[3,4-b]indole-1,4-dione] | 2.73 | 2.79 | – | –
15 | COc1ccc(CN2CCN(C(c3ccc(F)cc3)c3ccc(F)cc3)CC2)c(OC)c1OC [Lomerizine, 1-[bis(4-fluorophenyl)methyl]-4-[2,3,4-trimethoxyphenylmethyl]Dihydrochloride] | 2.39 | 3.47 | – | –
16 | C[C@H]1CCC[C@H](O)CCCCCc2cc(O)cc(O)c2C(=O)O1 [Zeranol, (3S,7R)-7,14,16-trihydroxy-3-methyl-3,4,5,6,7,8,9,10,11,12-decahydro-1H-2-benzoxacyclotetradecin-1-one] | 2.6 | 4.51 | – | –
17 | COc1ccc(-c2oc3c(CC=C(C)C)c(O[C@@H]4O[C@H](CO)[C@@H](O)[C@H](O)[C@H]4O)cc(O)c3c(=O)c2O[C@@H]2O[C@@H](C)[C@H](O)[C@@H](O)[C@H]2O)cc1 [Icariin, 5-hydroxy-2-(4-methoxyphenyl)-8-(3-methylbut-2-enyl)-7-[(2S,3R,4S,5S,6R)-3,4,5-trihydroxy-6-(hydroxymethyl)oxan-2-yl]oxy-3-[(2S,3R,4R,5R,6S)-3,4,5-trihydroxy-6-methyloxan-2-yl]oxychromen-4-one] | 2.38 | 2.29 | – | –
18 | C[C@]12Cc3c[nH]nc3C[C@@H]1CC[C@@H]1[C@@H]2CC[C@@]2(C)[C@H]1CC[C@]2(C)O [Stanozolol, 17β-Hydroxy-17-methyl-5α-androstano[3,2-c]-pyrazole] | 1.75 | 1.76 | – | –
19 | COC(=O)C1=C(C)NC(C)=C(C(=O)OC2CCCN(Cc3ccccc3)C2)C1c1cccc([N+](=O)[O-])c1 [Benidipine, 5-Omethyl-3O-[(3R)-1-(phenylmethyl)-piperidin-3-yl]2,6-dimethyl-4-(3-nitrophenyl)-1,4-dihydropyridine-3,5-dicarboxylate] | 3.01 | 1.69 | – | –
20 | Cc1nc2n(c(=O)c1CCN1CCC(c3noc4cc(F)ccc34)CC1)CCCC2 [Risperidone, 3-[2-[4-(6-flouro-1,2-benzisoxazol-3-yl)-1-piperidinyl]-ethyl]-6,7,8,9-tetrahydro-2-methyl-4H-pyrido[,2-a]pyrimidin-4-one] | 3.48 | 3.02 | – | –
